According to patent US10214510B2, “N-cycloalkyl-N-(biheterocyclylethylene)-(thio)carboxamide derivatives” (Bayer CropScience Aktiengesellschaft, priority 2015, dated 2019):

What was measured:
[1] = log P by HPLC on reversed-phase column (C 18), EEC Directive 79/831 Annex V.A8; type: physicochemical; conditions: for logP: HPLC, C 18, 40° C., 0.1% aqueous formic acid and acetonitrile
Protocol: In table 1, the log P values were determined in accordance with EEC Directive 79/831 Annex V.A8 by HPLC (High Performance Liquid Chromatography) on a reversed-phase column (C 18), using the method described below: Temperature: 40° C.; Mobile phases: 0.1% aqueous formic acid and acetonitrile; linear gradient from 10% acetonitrile to 90% acetonitrile. Calibration was carried out using unbranched alkan-2-ones (comprising 3 to 16 carbon atoms) with known log P values (determination of the log P values by the retention times using linear interpolation between two successive alkanones). lambda-max-values were determined using UV-spectra from 200 nm to 400 nm and the peak values of the chromatographic signals.

[2] = system: Puccinia recondita; assay: In vivo preventive test on Puccinia recondita (brown rust on wheat)
Protocol: (§1) Example B: In Vivo Preventive Test on Puccinia Recondita (Brown Rust on Wheat) Solvent: 5% by volume of Dimethyl sulfoxide • 10% by volume of Acetone Emulsifier: 1 μL of Tween® 80 per mg of active ingredient The active ingredients are made soluble and homogenized in a mixture of Dimethyl sulfoxide/Acetone//Tween® 80 and then diluted in water to the desired concentration. The young plants of wheat are treated by spraying the active ingredient prepared as described above. Control plants are treated only with an aqueous solution of Acetone/Dimethyl sulfoxide/Tween® 80. After 24 hours, the plants are contaminated by spraying the leaves with an aqueous suspension of Puccinia recondita spores. The contaminated wheat plants are incubated for 24 hours at 20° C. and at 100% relative humidity and then for 10 days at 20° C. and at 70-80% relative humidity. The test is evaluated 11 days after the inoculation. 0% means an efficacy which corresponds to that of the control plants while an efficacy of 100% means that no disease is observed.

[3] = system: Alternaria brassicae; assay: In vivo preventive test on Alternaria brassicae (leaf spot on radish); conditions: for protection: dose of 100 and 500 ppm of active ingredient
Protocol: Example A: In Vivo Preventive Test on Alternaria Brassicae (Leaf Spot on Radish) Solvent: 5% by volume of Dimethyl sulfoxide • 10% by volume of Acetone Emulsifier: 1 μL of Tween® 80 per mg of active ingredient The active ingredients are made soluble and homogenized in a mixture of Dimethyl sulfoxide/Acetone//Tween® 80 and then diluted in water to the desired concentration. The young plants of radish are treated by spraying the active ingredient prepared as described above. Control plants are treated only with an aqueous solution of Acetone/Dimethyl sulfoxide/Tween® 80. After 24 hours, the plants are contaminated by spraying the leaves with an aqueous suspension of Alternaria brassicae spores. The contaminated radish plants are incubated for 6 days at 20° C. and at 100% relative humidity. The test is evaluated 6 days after the inoculation. 0% means an efficacy which corresponds to that of the control plants while an efficacy of 100% means that no disease is observed.

[4] = system: Uromyces appendiculatus; assay: In vivo preventive test on Uromyces appendiculatus (bean rust); conditions: for Efficacy: Table F2, dose 500 ppm; for protection: dose of 500 ppm of active ingredient
Protocol: as §1, with “F:” for “B:”, “Uromyces Appendiculatus (Bean Rust)” for “Puccinia Recondita (Brown Rust on Wheat)”, “bean” for “wheat”, “Uromyces appendiculatus” for “Puccinia recondita”

[5] = dose of 500 ppm of active ingredient
[6] = dose of 100 and 500 ppm of active ingredient

CC(Cc1nc2ccc(C(F)(F)F)cn2c1-c1cccc2cccnc12)N(C(=O)c1c(C(F)F)nn(C)c1F)C1CC1 (stereo not drawn) [I.18]
logP [1]: 2.44

CC(Cc1ncc(C(F)(F)F)cc1-c1ccnc2cc(Cl)ccc12)N(C(=O)c1c(C(F)F)nn(C)c1F)C1CC1 (stereo not drawn) [I.03]
logP [1]: 4.20

CC(Cc1ncc(C(F)(F)F)cc1-c1csc2ccccc12)N(C(=S)c1c(C(F)F)nn(C)c1F)C1CC1 (stereo not drawn) [I.14]
logP [1]: 5.32

CC(Cc1ncc(C(F)(F)F)cc1-c1coc2ccccc12)N(C(=O)c1cn(C)nc1C(F)F)C1CC1 (stereo not drawn) [I.11]
logP [1]: 4.11

CC(Cc1ncc(C(F)(F)F)cc1-c1csc2ccccc12)N(C(=O)c1c(C(F)F)nn(C)c1F)C1CC1 (stereo not drawn) [I.02]
logP [1]: 4.72

CC(Cc1nc2ccc(C(F)(F)F)cn2c1-c1cccnc1)N(C(=O)c1c(C(F)F)nn(C)c1F)C1CC1 (stereo not drawn) [CMP1, N-cyclopropyl-3-(difluoromethyl)-5-fluoro-1-methyl-N-{1-[3-(pyridin-3-yl)-6-(trifluoromethyl)imidazo[1,2-a]pyridin-2-yl]propan-2-yl}-1H-pyrazole-4-carboxamide, reference compound]
Efficacy ([2]; Table B2, dose 500 ppm): 0%
protection [2, 5]: no protection
Efficacy ([3]; Table A2, dose 100 ppm): 0%
Efficacy ([3]; Table A2, dose 500 ppm): 43%
protection [3]: less than 50%

CC(Cc1ncc(C(F)(F)F)cc1CN1CCCCC1)N(C(=O)c1cn(C)nc1C(F)F)C1CC1 (stereo not drawn) [I.22]
logP [1]: 1.67

CC(Cc1ncc(C(F)(F)F)cc1-c1ccnc2cc(Cl)ccc12)N(C(=O)c1cn(C)nc1C(F)F)C1CC1 (stereo not drawn) [I.12]
logP [1]: 3.78

CC(Cc1ncc(C(F)(F)F)cc1-c1ccsc1)N(C(=O)c1cn(C)nc1C(F)F)C1CC1 (stereo not drawn) [I.09]
logP [1]: 3.67

CC(Cc1ncc(C(F)(F)F)cc1-c1ccco1)N(C(=O)c1cn(C)nc1C(F)F)C1CC1 (stereo not drawn) [I.08]
logP [1]: 3.55

CC(Cc1nc2ccc(C(F)(F)F)cn2c1-c1ccsc1)N(C(=O)c1ccsc1Cl)C1CC1 (stereo not drawn) [I.23]
logP [1]: 4.44

Cc1nc(C(F)F)c(C(=O)N(C(C)Cc2nc3ccc(C(F)(F)F)cn3c2-c2ccsc2)C2CC2)s1 (stereo not drawn) [I.25]
logP [1]: 3.39

CC(Cc1nc2ccc(C(F)(F)F)cn2c1-c1ccsc1)N(C(=O)c1c(C(F)F)nn(C)c1F)C1CC1 (stereo not drawn) [I.15]
logP [1]: 2.8

Cc1cc(C(=O)N(C(C)Cc2nc3ccc(C(F)(F)F)cn3c2-c2ccsc2)C2CC2)c(C)o1 (stereo not drawn) [I.24]
logP [1]: 3.35

Cc1cscc1-c1cc(C(F)(F)F)cnc1CC(C)N(C(=O)c1cn(C)nc1C(F)F)C1CC1 (stereo not drawn) [I.10]
logP [1]: 3.99

CC(Cc1nc2ccc(C(F)(F)F)cn2c1-c1ccsc1)N(C(=O)c1nn(C)nc1C(F)F)C1CC1 (stereo not drawn) [I.20]
logP [1]: 3.08

Cc1cscc1-c1cc(C(F)(F)F)cnc1CC(C)N(C(=O)c1c(C(F)F)nn(C)c1F)C1CC1 (stereo not drawn) [I.07]
logP [1]: 4.37

CC(Cc1ncc(C(F)(F)F)cc1-c1cnc2ccccc2c1)N(C(=O)c1c(C(F)F)nn(C)c1F)C1CC1 (stereo not drawn) [I.01]
logP [1]: 3.53

CC(Cc1nc2ccc(C(F)(F)F)cn2c1-c1csc2ccccc12)N(C(=O)c1c(C(F)F)nn(C)c1F)C1CC1 (stereo not drawn) [I.17]
logP [1]: 3.57

CC(Cc1ncc(C(F)(F)F)cc1-c1cccnc1)N(C(=O)c1c(C(F)F)nn(C)c1F)C1CC1 (stereo not drawn) [CMP2, N-cyclopropyl-3-(difluoromethyl)-5-fluoro-1-methyl-N-{1-[5-(trifluoromethyl)-3,3′-bipyridin-2-yl]propan-2-yl}-1H-pyrazole-4-carboxamide, reference compound]
Efficacy ([2]; Table B3, dose 100 ppm): 38%
Efficacy ([2]; Table B3, dose 500 ppm): 69%
protection [2, 6]: less than 70%
Efficacy [4]: 0%
protection [4]: no protection

CC(Cc1ncc(C(F)(F)F)cc1-c1coc2ccccc12)N(C(=O)c1c(C(F)F)nn(C)c1F)C1CC1 (stereo not drawn) [I.04]
logP [1]: 4.46

COc1ccnc(-c2c(CC(C)N(C(=O)c3c(C(F)F)nn(C)c3F)C3CC3)nc3ccc(C(F)(F)F)cn23)n1 (stereo not drawn) [I.19]
logP [1]: 2.44

CC(Cc1ncc(C(F)(F)F)cc1-c1ccoc1)N(C(=O)c1c(C(F)F)nn(C)c1F)C1CC1 (stereo not drawn) [I.05]
logP [1]: 3.76
Efficacy ([2]; Table B3, dose 100 ppm): 93%
Efficacy ([2]; Table B3, dose 500 ppm): 100%
protection [2, 6]: at least 90%
Efficacy [4]: 100%
protection [4]: total protection

CC(Cc1ncc(C(F)(F)F)cc1CN1CCCCC1)N(C(=O)c1c(C(F)F)nn(C)c1F)C1CC1 (stereo not drawn) [I.21]
logP [1]: 1.82

CC(Cc1nc2ccc(C(F)(F)F)cn2c1-c1ccoc1)N(C(=O)c1c(C(F)F)nn(C)c1F)C1CC1 (stereo not drawn) [I.16]
logP [1]: 2.63
Efficacy ([2]; Table B2, dose 500 ppm): 78%
protection [2, 5]: at least 70%
Efficacy ([3]; Table A2, dose 100 ppm): 86%
Efficacy ([3]; Table A2, dose 500 ppm): 86%
protection [3]: at least 80%

CC(Cc1ncc(C(F)(F)F)cc1-c1cnc2ccccc2c1)N(C(=S)c1c(C(F)F)nn(C)c1F)C1CC1 (stereo not drawn) [I.13]
logP [1]: 3.99

CC(Cc1ncc(C(F)(F)F)cc1-c1ccsc1)N(C(=O)c1c(C(F)F)nn(C)c1F)C1CC1 (stereo not drawn) [I.06, N-cyclopropyl-3-(difluoromethyl)-5-fluoro-1-methyl-N-{1-[3-(3-thienyl)-5-(trifluoro-methyl)-pyridin-2-yl]propan-2-yl}-1H-pyrazole-4-carboxamide]
chromatographic logP ([1]; reversed-phase HPLC column (C 18), preparation example 1): 4.03
